Assay results: patent publication US11136328B2, “3,3-difluoropiperidine carbamate heterocyclic compounds as NR2B NMDA receptor antagonists” (Rugen Holdings (Cayman) Limited, priority 2015, dated 2021)

Assays:
hERG channel = hERG channel (Homo sapiens (Human), UniProt Q12809); assay: hERG channel inhibition, whole cell patch clamp; type: cell-based; settings: 10 μM compound
Protocol: The assay was performed on hERG channel stably expressed in HEK293 cells. The cells were cultured at 37° C. in a humidified CO2 incubator in the growth medium consisting of DMEM, 10% fetal bovine serum and antibiotics. Prior to the assay, the cells were seeded onto a 12 mm PDL-coated glass coverslip and cultured in a 35 mm Petri dish. After 16 to 40 hr culture, the cover slip was transferred into the chamber of OctaFlow perfusion system (ALA Instrument) and under a constant flow of extracellular solution (140 mM NaCl, 4 mM KCl, 1 mM MgCl2, 2 mM CaCl2, 10 mM HEPES, 10 mM D-glucose, pH 7.35, osmolarity 290). Whole cell patch clamping was performed with a glass micropipette filled with intracellular solution (120 mM KCl, 1.75 mM MgCl2, 5.4 mM CaCl2, 10 mM HEPES, 10 mM EGTA, and 4 mM ATP-K2, PH 7.2, osmolarity 310). Giga-seal was maintained during the test. The voltage control and current measurement were carried out using Axon amplifier 700B, Digidata 1440A and CLAMPEX10 software (Molecular Devices). Whole-cell hERG currents were recorded following the Petroski protocol: the cell was held at −80 mV, and the voltage step jumped from −80 to 30 mV and stay for 2 sec with a 20 ms prepulse at −40 mV. After depolarization, the voltage was decreased to −40 mV and stay for 2 sec, and returned back to −80 mV. Test compound was applied by quartz capillary tubes tip (200 μm inner diameter), and the flow rate was controlled at 2-3 ml/min with OctaFlow perfusion system. Different concentrations of the compound were applied to the cells for 5 min and the hERG current was measured three times before, during and after compound treatment. The data were analyzed using Clampfit 10 software (Molecular Devices) to generate IC50 values.

CYP2D6 = CYP2D6 (Homo sapiens (Human), UniProt P10635); assay: CYP P450 enzyme inhibition in pooled human liver microsomes; type: in vitro ADME; settings: 10 μM compound, pooled HLM
Sequence of CYP2D6 (P10635 whole entry): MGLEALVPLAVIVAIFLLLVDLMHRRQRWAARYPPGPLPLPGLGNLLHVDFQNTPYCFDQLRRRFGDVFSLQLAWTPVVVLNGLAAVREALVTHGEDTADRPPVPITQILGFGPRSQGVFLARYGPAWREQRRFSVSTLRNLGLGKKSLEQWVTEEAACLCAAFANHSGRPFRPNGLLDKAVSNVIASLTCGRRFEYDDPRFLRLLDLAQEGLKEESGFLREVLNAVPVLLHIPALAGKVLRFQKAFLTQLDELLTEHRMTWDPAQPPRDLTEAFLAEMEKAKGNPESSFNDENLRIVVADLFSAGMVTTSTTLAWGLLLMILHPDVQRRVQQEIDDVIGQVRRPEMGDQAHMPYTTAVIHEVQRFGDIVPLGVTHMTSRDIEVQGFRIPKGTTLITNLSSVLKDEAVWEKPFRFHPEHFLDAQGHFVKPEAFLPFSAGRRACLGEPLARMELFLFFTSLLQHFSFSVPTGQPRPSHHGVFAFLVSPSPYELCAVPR
Protocol: Those CYP isoforms and their corresponding probe substrates are as follows: CYP1A2 (phenacetin, 30 μM), CYP2C9 (tolutamide, 100 μM), CYP2C19 (S-mephenytoin, 40 μM), CYP2D6 (dextromethorphan, 5 μM) and CYP3A4 (midazolam, 1 μM). All probe substrates were used at concentrations near or below their Kms. For experiment, a reaction mixture of test compound at 10 μM or in serial dilution, CYP probe substrate described above and 0.2 mg/mL pooled HLM in phosphate buffer, pH 7.4 in a final volume of 200 μL was pre-incubated at 37° C. for 10 minutes in triplicate. The reaction was initiated by addition of NADPH at final concentration of 1 mM. The reaction was terminated after 10 minutes (CYP1A2, CYP2D6 and CYP3A4) or 30 minutes (CYP2C9 and CYP2C19) by addition of 100 μL ice-cold acetonitrile with internal standard (IS). The samples were then centrifuged at 13,000 rpm and the supernatants were injected to LC-MS/MS (Agilent Technologies) to quantify the concentration of the specific metabolites of the probe substrates formed by individual CYP450 isoforms. The inhibition ratio is calculated as: (Mt−M0)/Mwater×100% in which Mt and M0 represent the concentrations of the specific probe substrate metabolite, which was formed by individual CYP450 isoform, at the beginning and end of the reaction in the presence of test compound; while Mwater represents the concentration of the specific metabolite at the end of the reaction in the absence of test compound. Test compound concentration-dependent response data experiments performed in triplicate.

rats [1] = assay: Electroconvulsive Threshold Test (ECT); type: in vivo; settings: 3, 10 and 30 mpk p.o., mesylate salt
Protocol: (§1) Test compound E1-8.2 was administered as the free base.
Rats were administered ECS (rectangular current: 0.6 ms pulse width, 1.5 s duration, 200 Hz) via earclip electrodes connected to a constant current shock generator (Ugo Basile: type 7801). Test compounds were administered by oral gavage (p.o.) 1 hour before the test at a dose volume of 5 mL/kg.
Treatment groups of 20 rats were exposed to ECS as follows: The first animal was exposed to 30 mA of ECS. […] (increases of 5 mA) until the first tonic convulsion was observed. Once the first tonic convulsion was observed, the intensity of ECS was decreased by 2 mA for the next animal and then decreased or increased by 2 mA from animal to animal depending on whether the previous animal convulsed or not. If the first animal did convulse (tonic convulsions) within 5 seconds, animal no 2 is exposed to 25 mA, etc. . . . (decreases of 5 mA) until the absence of tonic convulsions was observed. At this point, the intensity of ECS was increased by 2 mA for the next animal and then decreased or increased by 2 mA from animal to animal depending on whether the previous animal convulsed or not. The minimum current intensity applied is 5 mA and the maximum 95 mA. The first 5 animals serve to approach threshold current and were not included in the analysis. The results are presented as the mean current intensity administered to the final 15 animals of a group. The test was performed blind. A positive percent change indicates an anticonvulsant effect. A negative percent change indicates a proconvulsant effect. The test substance was evaluated at 4 doses, typically using 0.5% dimethylsulfoxide, 4% hydroxypropyl-b-cyclodextrin water as a vehicle, and administered p.o. 60 minutes before ECS, and compared with a vehicle control group. Diazepam (16 mg/kg p.o.), administered under the same experimental conditions, was used as reference substance. The experiment included 6 groups. Data with the test substance was analyzed by comparing treated groups with vehicle control using one-way ANOVA followed by Dunnett's t tests.

rats [2] = assay: Pentylenetetrazole (PTZ) Seizure Test; type: in vivo; settings: 10 mg/kg p.o. 30 min before PTZ 100 mg/kg s.c.
Protocol: Rats, placed in individual macrolon cages (25×19×13 cm), were injected with pentylenetetrazole (PTZ) (100 mg/kg s.c.). The occurrence and latency of clonic and tonic convulsions and death were noted over a 30 minute period. 15 rats were studied per group. The test was performed blind.
as §1
Compounds were evaluated typically using 0.5% dimethylsulfoxide, 4% hydroxypropyl-b-cyclodextrin water as a vehicle at 1 or more doses (e.g., 1, 3 and 10 mg/kg), administered p.o. 30 minutes before PTZ, and compared with a vehicle control group. Diazepam (16 mg/kg p.o.), administered 60 minutes before PTZ, was used as reference substance. The experiment was performed over 2 separate sub-experiments with N=7 to 8 animals per group and per sub-experiment. Quantitative data (latencies) with the test substance was analyzed by comparing treated groups with vehicle control using Kruskal-Wallis test followed by Mann-Whitney U test. Quantitative data with the reference substance was analyzed using Mann-Whitney U test. Quantal data (frequencies) was analyzed by comparing treated groups with vehicle control using Fisher's Exact Probability tests (*=p<0.05; **=p<0.01; ***=p<0.001).

rats [3] = assay: Rat formalin model; type: in vivo; settings: each of 10, 30 and 60 mpk i.p., mesylate salt
Protocol: The rat formalin model is a tonic model of continuous pain resulting from formalin-induced spontaneous nociceptive behaviors. Intra-paw injection of formalin is a commonly used model to measure spontaneous nociceptive behaviors in rodents (Dubuisson, D. and Dennis, S. G. Pain 4:161, 1977). Subcutaneous plantar injection of formalin causes a bi-phasic nocifensive behavioral response in rodents. The early phase (phase-1) lasts for about 5-10 min following which an interphase occurs without any discernible nociceptive reactions after which the late phase (phase-II) nociceptive reaction ensues continuing from about 20-60 min following formalin injection. Formalin model is a model of tonic, persistent pain, and is widely used for rapid screening of novel analgesic compounds. […] In the present example, effects of test item were assessed in 0-5 minutes from the early phase (phase-I) and 20-35 minutes from the late phase (phase-II) of formalin-induced nociceptive behavior. […]
For all groups, animals were acclimated to the observation chamber for 15 minutes immediately prior to formalin injection. All animals received an intraplantar subcutaneous injection of 50 μL of 5% formalin into the left hind paw and then placed immediately into an observation chamber and formalin-evoked spontaneous nociceptive behaviors in the rats were continuously recorded for 0-60 min using a commercial camcorder. […]

rats [4] = assay: Cortical spreading depression (CSD) migraine model; type: in vivo
Protocol: The cortical spreading depression model is utilized to investigate whether treatment with compounds of the present invention affect electrophysiological and hemodynamic events in a rat model of migraine.
Rats were anesthetized with 5% isoflurane (in 70% N2O and 30% O2; flow 300 ml/min) and placed in a stereotactic frame. […] The rectal temperature was maintained at 37.0±1.0° C. with a homeothermic blanket system. The skin was opened by a medial incision and retracted laterally. Three burr holes were drilled under saline cooling over the right hemisphere at the following coordinates (mm from bregma): (1) posterior 4.5, lateral, 2.0 (occipital cortex): KCl application site; (2) posterior 0.5, lateral 2.0 (parietal cortex): LDF recording site; (3) anterior 2, lateral 2 (frontal cortex): DC potential recording site. A laser-Doppler flow probe (Oxyflow, Oxford Optronics, UK) to monitor CBF and an invasive Ag/AgCl electrode for measuring direct current (DC) potential shifts were placed in the parietal and frontal cortex burr holes on the intact dura and in the cortex, respectively. The laser-Doppler flow probe was positioned in an area free of large pial and dural vessels to minimize a large-vessel contribution to the signal. For the DC-potential measurement, a reference electrode was fixed in the neck. Dura overlying the occipital cortex was gently removed and care was taken to avoid bleeding. After surgical preparation, the cortex was allowed to recover for 15 minutes under saline irrigation. A cotton ball (2 mm diameter) soaked with 1M KCl was placed on the pial surface and kept moist by placing 5 μl of KCl solution every 15 minutes. Test compound or vehicle was administered ten (10) minutes prior to CSD initiation. […] The number of KCl-induced CSDs was counted for 2 hours. The CBF and DC-potentials were monitored continuously starting from 5 minutes before KCl exposure.
Test compound E1-1.2 was administered as a mesylate salt (mpk based on molecular weight of the mesylate salt).
The data was collected in Windaq acquisition software (Dataq Instruments, USA) at 20 kHz. The raw data was analyzed in Clampfit program (Axon Instruments, USA). The signals were low pass filtered (cut off range 5-10000 Hz) that CSD episodes in DC and CBF could be confirmed. The following parameters were analyzed: i) the number, duration and amplitude of DC-potentials, and ii) the number and amplitude of CBF events.

rats [5] = assay: Haloperidol-induced Catalepsy (HIC) model; type: in vivo; settings: 8 mg/kg p.o. 60 minutes before the test
Source text: The Haloperidol-induced Catalepsy (HIC) model detects antipsychotic activity and the action of NR2B selective antagonists (Steece-Collier et al. Exp. Neurol. 163: 239, 2000) and was based on methods described by Chermat and Simon (J. Pharmacol., 6, 493-496, 1975). The capacity to induce catalepsy serves as an index of the liability of a test substance to induce extrapyramidal side-effects, in particular Parkinsonism. Antagonism of antipsychotic-induced catalepsy can thus serve to detect anti-Parkinson potential.
Rats were injected with haloperidol (1 mg/kg i.p.) and were examined for catalepsy at 30 minute intervals up to 360 minutes. Presence (+) or absence (−) of catalepsy was assessed by three procedures: 1) imposed crossing of the ipsilateral fore- and hind-limbs; 2) placing the animal in the Buddha position; 3) the tilting board, an automatic device that, 5 seconds after positioning the rat, displaces the rat from a horizontal to vertical position and back while it clings to a wire grid with its front paws. Akinesia and catalepsy were assessed depending on whether or not the animal moves before (akinesia) or during operation of the board (catalepsy). […]
Amphetamine (8 mg/kg p.o.), administered 60 minutes before the test (i.e. 90 minutes before the first measurement), was used as reference substance. […] Data with the reference substance were analyzed using Mann-Whitney U tests.

[6] = E1-1.2 at various doses, MK-801 1.25 mg/kg

Sequence of hERG channel (Q12809 whole entry): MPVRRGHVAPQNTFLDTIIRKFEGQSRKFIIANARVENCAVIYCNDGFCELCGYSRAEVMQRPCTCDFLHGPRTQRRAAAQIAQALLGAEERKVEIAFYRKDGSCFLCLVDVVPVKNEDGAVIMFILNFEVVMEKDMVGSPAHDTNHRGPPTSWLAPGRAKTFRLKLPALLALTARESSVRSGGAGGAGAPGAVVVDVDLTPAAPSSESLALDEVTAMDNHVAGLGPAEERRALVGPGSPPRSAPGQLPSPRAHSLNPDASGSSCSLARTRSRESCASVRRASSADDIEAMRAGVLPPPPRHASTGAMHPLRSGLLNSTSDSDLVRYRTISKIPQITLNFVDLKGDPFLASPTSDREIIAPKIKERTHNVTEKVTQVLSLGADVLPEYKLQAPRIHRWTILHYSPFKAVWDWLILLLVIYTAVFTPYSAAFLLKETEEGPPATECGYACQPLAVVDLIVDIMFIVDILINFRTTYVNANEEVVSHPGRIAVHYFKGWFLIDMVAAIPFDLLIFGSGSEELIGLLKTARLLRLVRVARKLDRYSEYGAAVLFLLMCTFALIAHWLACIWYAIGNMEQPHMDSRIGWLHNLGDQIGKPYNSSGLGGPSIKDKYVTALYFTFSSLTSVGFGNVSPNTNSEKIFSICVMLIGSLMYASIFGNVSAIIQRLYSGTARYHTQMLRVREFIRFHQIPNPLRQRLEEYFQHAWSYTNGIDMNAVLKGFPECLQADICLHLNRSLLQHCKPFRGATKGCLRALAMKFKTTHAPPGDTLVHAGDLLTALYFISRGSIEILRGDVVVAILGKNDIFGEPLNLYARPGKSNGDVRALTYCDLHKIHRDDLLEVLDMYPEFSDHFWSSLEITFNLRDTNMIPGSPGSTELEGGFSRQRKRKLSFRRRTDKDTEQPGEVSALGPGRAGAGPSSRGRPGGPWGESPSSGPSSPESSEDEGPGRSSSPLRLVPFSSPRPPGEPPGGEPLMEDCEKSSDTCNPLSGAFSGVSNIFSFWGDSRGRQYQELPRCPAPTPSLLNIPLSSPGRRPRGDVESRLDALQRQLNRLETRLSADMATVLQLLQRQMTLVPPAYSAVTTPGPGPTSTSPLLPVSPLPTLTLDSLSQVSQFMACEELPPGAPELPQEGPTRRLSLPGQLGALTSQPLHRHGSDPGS

Structure (SMILES)	hERG @ 10 μM (%) (hERG channel)	CYP2D6 @ 10 μM (%) (CYP2D6)	activity on electroconvulsive threshold (rats [1])	change in latency to death (rats [2])	change in number of deaths vs vehicle controls (rats [2]) [%]	cumulative time spent on nociceptive behavior in phase I (0-5 mins) (rats [3])	cumulative time spent on nociceptive behavior in phase II (20-35 mins) (rats [3])	magnitude of CBF vs vehicle (rats [4])	number of DC potentials vs vehicle group (rats [4]; 3 mpk, 10 mpk and 30 mpk, mesylate salt)	number of CBF events vs vehicle (rats [4]; E1-1.2 at 10 mg/kg, MK-801 at 1.25 mg/kg)	amplitude of DC potentials vs vehicle (rats [4]; [6])	duration of DC potentials vs vehicle (rats [4]; [6])	anticataleptic activity (rats [5])
Cc1ccc(COC(=O)N2CC[C@H](CNc3nccn4cnnc34)C(F)(F)C2)cc1 [Compound E1-1.2, (+)-R-4-methylbenzyl 4-(([1,2,4]triazolo[4,3-a]pyrazin-8-ylamino)methyl)-3,3-difluoropiperidine-1-carboxylate]	17	14	robust anticonvulsant activity	+35%	−91	decreased	decreased	unchanged	significantly decreased	decreased	not statistically different compared to vehicle	not statistically different compared to vehicle	–
CC(N)Cc1ccccc1 (stereo not shown) [amphetamine]	–	–	–	–	–	–	–	–	–	–	–	–	showed the expected robust anticataleptic activity
